The values that follow come from ChEMBL document CHEMBL4420060, “Combinatorial therapies for the treatment of neoplasias using the opioid growth factor receptor” (2013).

One data set concerns MIA PaCa-2. In words: Growth inhibition of human MIAPaCa2 cells assessed as decrease in cell number at 1 uM incubated for 96 hrs by MTS assay relative to control. The data set is classed as functional.
In data set [1] the test system is UMSCC1. In words: Growth inhibition of human UM-SCC-1 cells assessed as decrease in cell number at 1 uM by MTS assay relative to control. The data set is classed as functional, cell-based. (In general: Tetrazolium assays rely on reduction of a dye to a coloured formazan, in cell work by metabolically active cells.)
The test system of data set [2] is UMSCC1. In words: Induction of apoptosis in human UM-SCC-1 cells assessed as increase in caspse-3 levels at 0.01 uM in presence of 1 uM OGF incubated for 6 days by flow cytometry. The data set is classed as functional. Background: Flow cytometry measures light scatter and fluorescence of single cells or particles in a stream.
Data set [3] concerns UMSCC1. In words: Antitumor activity against human UM-SCC-1 cells xenografted in nu/nu mouse assessed as time duration for delay in visible tumor development at 8 mg/kg dosed every other day and co-treated with 10 mg/kg/day OGF relative to control. The data set is classed as functional. (In xenograft studies the graft and the host belong to different species.)
The subject of data set [4] is UMSCC1. In words: Growth inhibition of human UM-SCC-1 cells assessed as decrease in cell number at 0.01 uM in presence of 1 uM OGF and 1 uM opioid antagonist naloxone incubated for 24 to 96 hrs by MTS assay relative to control. The data set is classed as functional.
In data set [5] the test system is UMSCC1. In words: Induction of apoptosis in human UM-SCC-1 cells assessed as increase in caspse-3 levels at 0.01 uM incubated for 6 days by flow cytometry. The data set is classed as functional.
Data set [6] relates to UMSCC1. In words: Growth inhibition of human UM-SCC-1 cells assessed as decrease in cell number at 0.01 uM incubated for 48 hrs followed by compound wash out by 50% replacement of media and measured after 48 hrs by MTS assay relative to control. The data set is classed as functional, cell-based.
Data set [7] deals with UMSCC1. In words: Antitumor activity against human UM-SCC-1 cells xenografted in nu/nu mouse assessed as reduction in tumor at 8 mg/kg dosed every other day and co-treated with 10 mg/kg/day OGF measured on 6th day of measurable tumors relative to control. The data set is classed as functional. Set-up: scale not given: the % may be the effect or the level left.
The test system of data set [8] is UMSCC1. In words: Induction of apoptosis in human UM-SCC-1 cells assessed as increase in caspse-3 levels at 0.01 uM in presence of 1 uM OGF incubated for 1 to 3 days by flow cytometry. The data set is classed as functional.
For data set [9], the system named is CAL-27. In words: Growth inhibition of human CAL27 cells assessed as decrease in cell number at 0.0001 uM with drug and media changed daily in presence of 1 uM OGF incubated for 48 hrs by MTS assay relative to control. The data set is classed as functional.
Data set [10] deals with UMSCC1. In words: Antitumor activity against human UM-SCC-1 cells xenografted in nu/nu mouse assessed as mouse mortality at 8 mg/kg dosed every other day measured on day 40 co-treated with 10 mg/kg/day OGF relative to control. The data set is classed as functional, organism-based.
Data set [11] relates to UMSCC1. In words: Antitumor activity against human UM-SCC-1 cells xenografted in nu/nu mouse assessed as latency time for measurable (62.5 mm3) tumors at 8 mg/kg dosed every other day and co-treated with 10 mg/kg/day OGF (Rvb <=2 weeks). The data set is classed as functional.
Data set [12] relates to UMSCC1. In words: Growth inhibition of human UM-SCC-1 cells assessed as decrease in cell number at 0.01 uM in presence of 1 uM OGF incubated for 72 hrs by MTS assay relative to control. The data set is classed as functional.
The nature of data set [13]: Toxicity in mouse xenografted with human UM-SCC-1 cells assessed as effect on large intestine/cecum/small bowel at 8 mg/kg dosed every other day by histological analysis. The data set is classed as organism-based. The settings on record: in vivo.
The test system of data set [14] is UMSCC1. In words: Antitumor activity against human UM-SCC-1 cells xenografted in nu/nu mouse assessed as reduction in tumor at 8 mg/kg dosed every other day and co-treated with 10 mg/kg/day OGF measured on 22nd to 36th day of measurable tumors relative to control. The data set is classed as functional, organism-based.
Data set [15] deals with CAL-27. In words: Growth inhibition of human CAL27 cells assessed as decrease in cell number at 0.0001 uM with drug and media changed daily incubated for 48 hrs by MTS assay relative to control. The data set is classed as functional. The settings on record: CAL-27, 48 h, read-out: GI.
Data set [16] concerns UMSCC1. In words: Antitumor activity against human UM-SCC-1 cells xenografted in nu/nu mouse assessed as reduction in tumor at 8 mg/kg dosed every other day and co-treated with 10 mg/kg/day OGF measured on 4th day of measurable tumors relative to control. The data set is classed as functional. Set-up: scale not given: the % may be the effect or the level left.
In data set [17] the test system is UMSCC1. In words: Growth inhibition of human UM-SCC-1 cells assessed as decrease in cell number at 0.01 uM incubated for 96 hrs in presence of 1 uM OGF by MTT assay relative to control. The data set is classed as functional.
The test system of data set [18] is UMSCC1. In words: Induction of apoptosis in human UM-SCC-1 cells assessed as increase in caspse-3 levels at 0.01 uM incubated for 1 day by flow cytometry. The data set is classed as functional, cell-based.
For data set [19], the system named is UMSCC1. In words: Antitumor activity against human UM-SCC-1 cells xenografted in nu/nu mouse assessed as reduction in tumor at 8 mg/kg dosed every other day and co-treated with at 10 mg/kg/day OGF measured on 16th to 20th day of measurable tumors relative to control. The data set is classed as functional, organism-based.
Data set [20] has as its system UMSCC1. In words: Antitumor activity against human UM-SCC-1 cells xenografted in nu/nu mouse assessed as latency time for measurable (62.5 mm3) tumors at 8 mg/kg dosed every other day (Rvb <=2 weeks). The data set is classed as functional.
Data set [21] deals with UMSCC1. In words: Inhibition of DNA synthesis in human UM-SCC-1 cells assessed as reduction in BrdU incorporation at 0.01 uM in presence of 1 uM OGF incubated for 72 hrs by fluorescence microscopy. The data set is classed as functional.
Data set [22] concerns UMSCC1. In words: Growth inhibition of human UM-SCC-1 cells assessed as decrease in cell number at 0.1 uM incubated for 72 hrs in presence of 1 uM OGF by MTT assay relative to control. The data set is classed as functional.
For data set [23], the system named is UMSCC1. In words: Antitumor activity against human UM-SCC-1 cells xenografted in nu/nu mouse assessed as reduction in tumor measured on 6th day of measurable tumors at 8 mg/kg dosed every other day relative to control. Set-up: scale not given: the % may be the effect or the level left. The data set is classed as functional.
Data set [24] deals with UMSCC1. In words: Growth inhibition of human UM-SCC-1 cells assessed as decrease in cell number at 0.01 uM in presence of 1 uM OGF incubated for 96 hrs by MTS assay relative to control. The data set is classed as functional.
In data set [25] the test system is UMSCC1. In words: Growth inhibition of human UM-SCC-1 cells assessed as decrease in cell number at 0.1 uM incubated for 96 hrs in presence of 1 uM OGF by MTT assay relative to control. The data set is classed as functional.
Data set [26] concerns UMSCC1. In words: Growth inhibition of human UM-SCC-1 cells assessed as decrease in cell number at 0.01 uM in presence of 1 uM OGF incubated for 48 hrs followed by compound wash out by 50% replacement of media and measured after 48 hrs by MTS assay relative to control. The data set is classed as functional, cell-based.
For data set [27], the system named is UMSCC1. In words: Antitumor activity against human UM-SCC-1 cells xenografted in nu/nu mouse assessed as mouse mortality at 8 mg/kg dosed every other day measured on day 19 relative to control. The data set is classed as functional, organism-based.
The nature of data set [28]: Toxicity in mouse xenografted with human UM-SCC-1 cells assessed as induction of stool hardening at 8 mg/kg dosed every other day by histological analysis. The following applies: in vivo. The data set is classed as organism-based.
Data set [29] concerns UMSCC1. In words: Growth inhibition of human UM-SCC-1 cells assessed as decrease in cell number at 0.01 uM in presence of 1 uM OGF incubated for 48 hrs by MTS assay relative to control. The data set is classed as functional.
The test system of data set [30] is UMSCC1. In words: Growth inhibition of human UM-SCC-1 cells assessed as decrease in cell number at 0.01 uM incubated for 72 hrs in presence of 1 uM OGF by MTT assay relative to control. The data set is classed as functional.
Data set [31] can be described thus: Toxicity in mouse xenografted with human UM-SCC-1 cells assessed as distension of abdomens with associated megacolon at 8 mg/kg dosed every other day by histological analysis. The data set is classed as organism-based. The following applies: in vivo.
In data set [32] the test system is UMSCC1. In words: Antitumor activity against human UM-SCC-1 cells xenografted in nu/nu mouse assessed as reduction in tumor measured on 22nd to 36th day of measurable tumors at 8 mg/kg dosed every other day relative to control. The data set is classed as functional, organism-based.

Structures are written as SMILES. Activity calls are given as the source filed them. The rule behind the calls is not given here.

As for `NC(=O)[C@H](Cc1ccccc1)NC(=O)[C@H](Cc1ccccc1)NC(=O)[C@@H]1CCCN1C(=O)[C@@H](N)Cc1ccc(O)cc1`, the “growth inhibition (GI)” value in the data set on MIA PaCa-2 and with UMSCC1 [1] was “inactive” in each case.

Consider `NC(=O)[C@H](Cc1ccccc1)NC(=O)[C@H](Cc1c[nH]c2ccccc12)NC(=O)[C@@H]1CCCN1C(=O)[C@@H](N)Cc1ccc(O)cc1`, for which the “growth inhibition (GI)” value with MIA PaCa-2 and in the data set with UMSCC1 [1] was “inactive” throughout.

Regarding `CC(=O)O[C@H]1C(=O)[C@@]2(C)[C@H]([C@H](OC(=O)c3ccccc3)[C@]3(O)C[C@H](OC(=O)[C@H](O)[C@@H](NC(=O)c4ccccc4)c4ccccc4)C(C)=C1C3(C)C)[C@]1(OC(C)=O)CO[C@@H]1C[C@@H]2O` [PACLITAXEL], the “fold change (FC)” value amounted to 13.9 in the data set with UMSCC1 [2], 2.7 in the data set on UMSCC1 [5] and 5.6 in the data set on UMSCC1 [8]. Further, the results for the Time in the data set with UMSCC1 [3], with UMSCC1 [11] and with UMSCC1 [20] were 4 days, 17 days and “<=12 day”, respectively. Besides, the “growth inhibition (GI)” value is 8.8 - 26% in the data set on UMSCC1 [4]; 61% with CAL-27 [9]; 63% in the data set on UMSCC1 [12]; 36.3% with UMSCC1 [17]; 68.4% in the data set with UMSCC1 [22]; 69% with UMSCC1 [24]. Besides, the results for the “growth inhibition (GI)” value in the data set with UMSCC1 [25], with UMSCC1 [29] and in the data set on UMSCC1 [30] were 78.4%, 48% and 30.6%, respectively. In addition, the “growth inhibition (GI)” value in the data set on UMSCC1 [6] and in the data set on UMSCC1 [26] was “Active” each time. For the same compound, the Activity was 29 - 33% in the data set with UMSCC1 [7]; “Toxic” in data set [13]; 29% with UMSCC1 [16]; 29 - 33% in the data set on UMSCC1 [23]; “Toxic” in [28]; “Toxic” in data set [31]. The result in the data set on UMSCC1 [10], with UMSCC1 [14] and in the data set on UMSCC1 [19] was Active. Also, the inhibition of growth at 0.0001 µM in the data set on CAL-27 [15] was in the range of 22 to 35%. Moreover, the result in the data set with UMSCC1 [18], with UMSCC1 [27] and in the data set with UMSCC1 [32] was inactive. For the same compound, the “inhibition (INH)” value with UMSCC1 [21] worked out at 16%.

Consider `CC1(C)SSC(C)(C)[C@@H](NC(=O)[C@@H](N)Cc2ccc(O)cc2)C(=O)NCC(=O)N[C@@H](Cc2ccccc2)C(=O)N[C@H]1C(=O)O`, for which the “growth inhibition (GI)” value in the data set with MIA PaCa-2 and with UMSCC1 [1] was “inactive” throughout.
